For the data set the following is noted: 0.022 mg/mL.

Experimental: To evaluate buffers with different pH, eleven milligrams of Dexamethasone Acetate was dissolved in 500 mL of media (different pH adjusted buffers).

As to `CC(=O)OCC(=O)[C@@]1(O)[C@H](C)C[C@H]2[C@@H]3CCC4=CC(=O)C=C[C@]4(C)[C@@]3(F)[C@@H](O)C[C@@]21C` [Dexamethasone Acetate], the “stability with respect to pH (order)” value is on record as “pH 3>pH 5≅acetate pH 5.7>water>pH 7>pH 9”.

Source of the values: patent US8097224B2, “Apparatuses and media for drug elution and methods for making and using them” (Medtronic MiniMed, Inc., priority 2007, dated 2012).
